Reference: ChEMBL document CHEMBL2169830, “Identification, synthesis, and biological evaluation of the metabolites of 3-amino-6-(3'-aminopropyl)-5H-indeno[1,2-c]isoquinoline-5,11-(6H)dione (AM6-36), a promising rexinoid lead compound for the development of cancer chemotherapeutic and chemopreventive agents” (J Med Chem, 2012)

How the values were obtained:
[1] = Inhibition of TNFalpha-induced human NFkappaB activity in HEK293 cells incubated for 6 hrs followed by compound wash out measured after 5 mins by luciferase assay; assay type: cell-based
[2] = Cytotoxicity against african green monkey COS1 cells assessed as cell survival at 50 uM relative to control; assay type: cell-based; conditions: chlorocebus aethiops, COS-1 cells; read-out: Survival
HEK293 [3] = assay: Inhibition of TNFalpha-induced human NFkappaB activity in HEK293 cells at 50 uM incubated for 6 hrs followed by compound wash out measured after 5 mins by luciferase assay; assay type: cell-based
[4] = Cytotoxicity against human HEK293 cells assessed as cell survival at 50 uM relative to control; assay type: cell-based; conditions: read-out: Survival
[5] = molecular target: T1, Retinoic acid receptor RXR-alpha (Homo sapiens) (UniProt P19793); assay: Agonist activity at human RXRalpha expressed in african green monkey COS1 cells assessed as induction of RXRE transcriptional activity at 12.5 uM after 12 hrs by luciferase reporter gene assay relative to control; assay type: functional, cell-based; conditions: COS-1
T1 sequence (whole entry): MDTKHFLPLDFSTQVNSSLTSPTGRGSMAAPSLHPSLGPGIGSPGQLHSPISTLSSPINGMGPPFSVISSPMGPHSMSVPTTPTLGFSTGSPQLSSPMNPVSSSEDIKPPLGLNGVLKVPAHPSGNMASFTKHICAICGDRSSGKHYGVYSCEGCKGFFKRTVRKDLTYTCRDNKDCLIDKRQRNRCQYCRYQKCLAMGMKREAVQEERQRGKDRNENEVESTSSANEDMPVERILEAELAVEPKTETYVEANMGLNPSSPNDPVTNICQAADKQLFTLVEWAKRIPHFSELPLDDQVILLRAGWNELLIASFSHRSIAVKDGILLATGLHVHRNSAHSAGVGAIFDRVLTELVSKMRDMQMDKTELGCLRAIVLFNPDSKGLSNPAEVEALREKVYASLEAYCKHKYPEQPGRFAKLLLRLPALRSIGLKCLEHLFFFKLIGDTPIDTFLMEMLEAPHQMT

[6] = molecular target: T2, Retinoic acid receptor RXR-alpha (Homo sapiens, UniProt P19793); assay: Agonist activity at human RXRalpha expressed in african green monkey COS1 cells assessed as induction of RXRE transcriptional activity after 12 hrs by luciferase reporter gene assay; assay type: functional, cell-based, COS-1
T2 sequence (P19793 whole entry): T1 sequence (whole entry)

HEK293 [7] = assay: Cytotoxicity against human HEK293 cells; assay type: cell-based
[8] = Cytotoxicity against african green monkey COS1 cells assessed as cell survival at 40 uM relative to control; assay type: cell-based; conditions: chlorocebus aethiops, COS-1 cells; read-out: Survival

| SMILES | IC50 [1] | viability at 50 µM [2] | inhibition (HEK293 [3]) | viability at 50 µM [4] | fold change (FC) [5] | EC50 [6] | IC50 (HEK293 [7]) | viability at 40 µM [8] |
| --- | --- | --- | --- | --- | --- | --- | --- | --- |
| Nc1ccc2c3c(n(CCCO)c(=O)c2c1)-c1ccccc1C3O (stereo not drawn) | 49.3 µM | 86.9% | 57.8% | 118% | – | – | – | – |
| CC(=O)NCCCn1c2c(c3ccc(N)cc3c1=O)C(=O)c1ccccc1-2 | 14.4 µM | 75.2% | 81.8% | 106% | 3.52 | 20.9 µM | – | – |
| CC(=O)Nc1ccc2c3c(n(CCCO)c(=O)c2c1)-c1ccccc1C3=O | – | 90.6% | 53.9% | 128% | – | – | – | – |
| CN(C)c1ccc2c3c(n(CCCNC(=O)OC(C)(C)C)c(=O)c2c1)-c1ccccc1C3=O | – | 102% | 25.9% | 97.6% | – | – | – | – |
| CC(C)(C)OC(=O)NCCCn1c2c(c3ccc([N+](=O)[O-])cc3c1=O)C(=O)c1ccccc1-2 | – | 106% | 0% | 101% | – | – | – | – |
| CNCCCn1c2c(c3ccc([N+](=O)[O-])cc3c1=O)C(=O)c1ccccc1-2 | 3.7 µM | < 50% | 92.4% | 79.7% | – | – | – | – |
| CNCCCn1c2c(c3ccc(N)cc3c1=O)C(=O)c1ccccc1-2 | 39.8 µM | 64.5% | 63.1% | 117% | 8.97 | – | – | – |
| Nc1ccc2c3c(n(CCCCl)c(=O)c2c1)-c1ccccc1C3=O | – | 102% | 0% | 91.4% | – | – | – | – |
| CNc1ccc2c3c(n(CCCNC(=O)OC(C)(C)C)c(=O)c2c1)-c1ccccc1C3=O | – | 94.8% | 53.9% | 68.6% | – | – | – | – |
| NCCCn1c2c(c3ccc([N+](=O)[O-])cc3c1=O)C(=O)c1ccccc1-2 | 2.6 µM | < 50% | 80.8% | < 50% | – | – | 16.9 µM | – |
| NCCCn1c2c(c3ccc(N)cc3c1=O)C(O)c1ccccc1-2 (stereo not drawn) | – | 87.5% | 53.1% | < 50% | – | – | – | – |
| Cc1ccc(S(=O)(=O)/C=C/C#N)cc1 | 2.01 µM | – | – | – | – | – | – | – |
| CN(C)c1ccc2c3c(n(CCCN)c(=O)c2c1)-c1ccccc1C3=O | 32.3 µM | < 50% | 86.3% | 110% | – | – | – | – |
| CC(=O)NCCCn1c2c(c3ccc([N+](=O)[O-])cc3c1=O)C(=O)c1ccccc1-2 | 38.8 µM | 99.4% | 87.4% | 69.1% | – | – | – | – |
| Cc1ccc(S(=O)(=O)N[C@@H](Cc2ccccc2)C(=O)CCl)cc1 [TPCK] | 5.1 µM | – | – | – | – | – | – | – |
| CNc1ccc2c3c(n(CCCN)c(=O)c2c1)-c1ccccc1C3O (stereo not drawn) | 0.7 µM | 63.6% | 69.2% | 95% | – | – | – | – |
| Nc1ccc2c3c(n(CCCO)c(=O)c2c1)-c1ccccc1C3=O | – | 85.9% | 53.2% | 116% | – | – | – | – |
| CNc1ccc2c3c(n(CCCN)c(=O)c2c1)-c1ccccc1C3=O | – | < 50% | 0% | 99.4% | 6.09 | – | – | – |
| O=C1c2ccccc2-c2c1c1ccc([N+](=O)[O-])cc1c(=O)n2CCCBr | – | – | 21.8% | 118% | – | – | – | 100% |
| CNCCCn1c2c(c3ccc(N)cc3c1=O)C(O)c1ccccc1-2 (stereo not drawn) | 0.6 µM | 84.1% | 83.7% | 90.1% | – | – | – | – |
| CC(=O)Nc1ccc2c3c(n(CCCN)c(=O)c2c1)-c1ccccc1C3O (stereo not drawn) | – | 83.7% | 0% | 99.2% | – | – | – | – |
| CNc1ccc2c3c(n(CCCNC(=O)OC(C)(C)C)c(=O)c2c1)-c1ccccc1C3O (stereo not drawn) | 0.4 µM | 67.5% | 83.4% | 90.1% | – | – | – | – |
| CC(=O)Nc1ccc2c3c(n(CCCN)c(=O)c2c1)-c1ccccc1C3=O | – | 74.5% | 0% | 122% | 3.55 | > 41.4 µM | – | – |
| C=C(c1ccc(C(=O)O)cc1)c1cc2c(cc1C)C(C)(C)CCC2(C)C [BEXAROTENE] | – | – | – | – | – | – | – | 74.5% |
| O=C1c2ccccc2-c2c1c1ccc([N+](=O)[O-])cc1c(=O)n2CCCO | 7.3 µM | 91.4% | 72.8% | 114% | – | – | – | – |
| CC(C)(C)OC(=O)NCCCn1c2c(c3ccc(N)cc3c1=O)C(=O)c1ccccc1-2 | – | 104% | 0% | 107% | – | – | – | – |
| CC(=O)Nc1ccc2c3c(n(CCCN=[N+]=[N-])c(=O)c2c1)-c1ccccc1C3=O | – | 93.1% | 0% | 115% | – | – | – | – |
